Data as given in ChEMBL document CHEMBL3085654, “Synthesis and evaluation of N-acylamino acids derivatives of triazenes. Activation by tyrosinase in human melanoma cell lines” (Eur J Med Chem, 2013).
Activity calls are given as the source filed them. The rule behind the calls is not given here.

Tests used:
[1] = Half life in PBS buffer at 10^-5 M at pH 7.4 by HPLC analysis; type: ADME
[2] = Half life in 80% human plasma at 10^-5 M by HPLC analysis; type: ADME, cell-free
[3] = Octanol-phosphate buffer apparent partition coefficient, log P of the compound at pH7.4 after 30 mins by HPLC analysis; type: physicochemical; conditions: pH 7.4
[4] = Stability in phosphate buffer assessed as mushroom tyrosinase-mediated prodrug conversion at 10^-5 M at pH 7.4 after 1 hr by HPLC analysis in presence of mushroom tyrosinase; type: ADME; conditions: agaricus bisporus, pH 7.4, 1 h, 10 µM
M8 = assay: Induction of apoptosis in human M8 cells assessed as apoptotic/necrotic cells at 50 to 100 uM after 48 hrs by APC-labeled annexin V and 7-AAD staining-based flow cytometric analysis; type: functional, cell-based
SK-MEL-30 [5] = assay: Induction of apoptosis in human SK-MEL-30 cells assessed as apoptotic/necrotic cells at 50 uM after 48 hrs by APC-labeled annexin V and 7-AAD staining-based flow cytometric analysis relative to control; type: functional
MNT1 [6] = assay: (§1) Induction of apoptosis in human MNT1 cells assessed as apoptotic/necrotic cells at 50 uM after 48 hrs by APC-labeled annexin V and 7-AAD staining-based flow cytometric analysis relative to control; type: functional
MNT1 [7] = assay: (§2) Induction of apoptosis in human MNT1 cells assessed as apoptotic/necrotic cells at 100 uM after 48 hrs by APC-labeled annexin V and 7-AAD staining-based flow cytometric analysis relative to control; type: functional
SK-MEL-30 [8] = assay: Induction of apoptosis in human SK-MEL-30 cells assessed as apoptotic/necrotic cells at 100 uM after 48 hrs by APC-labeled annexin V and 7-AAD staining-based flow cytometric analysis relative to control; type: functional
MNT1 [9] = assay: Induction of apoptosis in human MNT1 cells assessed as apoptotic/necrotic cells after 48 hrs by APC-labeled annexin V and 7-AAD staining-based flow cytometric analysis; type: functional, cell-based
[10] = Half life in phosphate buffer assessed as mushroom tyrosinase-mediated prodrug conversion at 10^-5 M at pH 7.4 by HPLC analysis; type: ADME; conditions: agaricus bisporus, pH 7.4, 10 µM
[11] = as §1; type: functional
[12] = as §2; type: functional
[13] = Chemical stability in PBS buffer at 10^-5 M at pH 7.4 after 15 days by HPLC analysis; type: physicochemical; conditions: pH 7.4, 360 h, 10 µM
[14] = substrate: COC(=O)c1ccc(/N=N/N(C)C(=O)[C@H](Cc2ccc(O)cc2)NC(C)=O)cc1; assay: (§3) Ratio of Kcat to Km for mushroom tyrosinase; conditions: Agaricus bisporus
[15] = substrate: CC(=O)N[C@@H](Cc1ccc(O)cc1)C(=O)N(C)/N=N/c1ccc(C#N)cc1; assay: as §3; conditions: Agaricus bisporus
[16] = substrate: NCCc1ccc(O)cc1; assay: (§4) Activity at mushroom tyrosinase by Michaelis-Menten plot analysis; conditions: Agaricus bisporus
[17] = substrate: N[C@@H](Cc1ccc(O)cc1)C(=O)O; assay: as §4; conditions: Agaricus bisporus
[18] = substrate: NCCc1ccc(O)c(O)c1; assay: as §4; conditions: Agaricus bisporus
[19] = substrate: COC(=O)c1ccc(/N=N/N(C)C(=O)[C@H](Cc2ccc(O)cc2)NC(C)=O)cc1; assay: as §4; conditions: Agaricus bisporus
[20] = substrate: CC(=O)N[C@@H](Cc1ccc(O)cc1)C(=O)N(C)/N=N/c1ccc(C#N)cc1; assay: as §4; conditions: Agaricus bisporus

CC(=O)c1ccc(/N=N/N(C)C(=O)[C@H](Cc2ccc(O)cc2)NC(=O)OC(C)(C)C)cc1
half-life at 10 µM [1]: 72.2 h | half-life at 10 µM [2]: 9.54 h | logD at 0.5 h [3]: 3.85 | Stability [4]: Stable

Cn1nnc2c(C(N)=O)ncn2c1=O
Activity (M8): Active | Activity (SK-MEL-30 [5]): Active | Activity (MNT1 [6]): Active | Activity (MNT1 [7]): Active | Activity (SK-MEL-30 [8]): Active

CCOC(=O)c1ccc(/N=N/N(C)C(=O)[C@H](Cc2ccc(O)cc2)NC(C)=O)cc1
Activity (MNT1 [9]): Dose-dependent effect | half-life at 10 µM [1]: 70.3 h | half-life at 10 µM [2]: 5.32 h | logD at 0.5 h [3]: 2.96 | t1/2 [10]: 0.3 h | Activity [11]: 17.46% | Activity [12]: 21.23%

CC(=O)N[C@@H](Cc1ccc(O)cc1)C(=O)N(C)/N=N/c1ccc(C(N)=O)cc1
half-life at 10 µM [1]: 40.6 h | half-life at 10 µM [2]: 5.19 h | logD at 0.5 h [3]: 1.27 | t1/2 [10]: 0.29 h

CC(=O)N[C@@H](Cc1ccc(O)cc1)C(=O)N(C)/N=N/c1ccc(C#N)cc1
Activity (MNT1 [9]): Dose-dependent effect | Activity (M8): inactive | half-life at 10 µM [1]: 42.7 h | half-life at 10 µM [2]: 1.23 h | logD at 0.5 h [3]: 2.14 | Activity (SK-MEL-30 [5]): 10.41% | t1/2 [10]: 0.26 h | Activity [11]: 8.5% | Activity [12]: 17.01% | Activity (SK-MEL-30 [8]): 12.47%

CC(=O)N[C@@H](Cc1ccc(O)cc1)C(=O)N(C)/N=N/c1ccc(Br)cc1
Stability [13]: Stable | half-life at 10 µM [2]: 6.8 h | logD at 0.5 h [3]: 3.36 | t1/2 [10]: 0.148 h

COC(=O)c1ccc(/N=N/N(C)C(=O)[C@H](Cc2ccc(O)cc2)NC(C)=O)cc1
half-life at 10 µM [1]: 75.1 h | half-life at 10 µM [2]: 2.8 h | logD at 0.5 h [3]: 2.12 | t1/2 [10]: 0.305 h

CC(=O)N[C@@H](Cc1ccc(O)cc1)C(=O)N(C)/N=N/c1ccc(C(C)=O)cc1
Activity (MNT1 [9]): Dose-dependent effect | half-life at 10 µM [1]: 56.6 h | half-life at 10 µM [2]: 1.41 h | logD at 0.5 h [3]: 2.33 | t1/2 [10]: 0.33 h | Activity [11]: 7.88% | Activity [12]: 11.23%

CN(/N=N/c1ccc(C#N)cc1)C(=O)[C@H](Cc1ccc(O)cc1)NC(=O)OC(C)(C)C
half-life at 10 µM [1]: 48.5 h | half-life at 10 µM [2]: 8.1 h | logD at 0.5 h [3]: 3.9 | Stability [4]: Stable

B1: Tyrosinase (Agaricus bisporus), O42713 (protein)
chain: MSLIATVGPTGGVKNRLNIVDFVKNEKFFTLYVRSLELLQAKEQHDYSSFFQLAGIHGLPFTEWAKERPSMNLYKAGYCTHGQVLFPTWHRTYLSVLEQILQGAAIEVAKKFTSNQTDWVQAAQDLRQPYWDWGFELMPPDEVIKNEEVNITNYDGKKISVKNPILRYHFHPIDPSFKPYGDFATWRTTVRNPDRNRREDIPGLIKKMRLEEGQIREKTYNMLKFNDAWERFSNHGISDDQHANSLESVHDDIHVMVGYGKIEGHMDHPFFAAFDPIFWLHHTNVDRLLSLWKAINPDVWVTSGRNRDGTMGIAPNAQINSETPLEPFYQSGDKVWTSASLADTARLGYSYPDFDKLVGGTKELIRDAIDDLIDERYGSKPSSGARNTAFDLLADFKGITKEHKEDLKMYDWTIHVAFKKFELKESFSLLFYFASDGGDYDQENCFVGSINAFRGTAPETCANCQDNENLIQEGFIHLNHYLARDLESFEPQDVHKFLKEKGLSYKLYSRGDKPLTSLSVKIEGRPLHLPPGEHRPKYDHTQARVVFDDVAVHVIN
kcat/Km [14]: 246 M⁻¹ s⁻¹ | kcat/Km [15]: 151 M⁻¹ s⁻¹ | Km [16]: 540 µM | Km [17]: 250 µM | Km [18]: 280 µM | Km [19]: 220 µM | Vmax [19]: 9.7 ×10⁻⁶ mM/min | kcat [19]: 0.05 s⁻¹ | Km [20]: 200 µM | Vmax [20]: 5.4 ×10⁻⁶ mM/min | kcat [20]: 0.03 s⁻¹
